Data taken from patent US20230293524A1, “OTIC FORMULATIONS FOR DRUG-INDUCED OTOTOXICITY” (Spiral Therapeutics Inc, priority 2019, published 2023).
Read-outs that look alike come from different tables or passages of the source.

Columns and labels:
[1] = test system: outer hair cells (OHCs) and inner hair cells (IHCs); experiment: Cochlear explant model: hair cell protection against cisplatin; format: cell-based, Sprague-Dawley rats; conditions: for EC100: Rattus norvegicus, read-out: Ex-vivo Efficacy Conc. for complete protection of hair cells (uM); for protection of hair cells against cisplatin: 1.5 hour pretreatment followed by co-treatment at different concentrations with 10 μM cisplatin
Source text: (§1) For hair cell and spiral ganglion assessment, postnatal Sprague-Dawley rats (P2-P4) of both sexes are anesthetized with isoflurane and decapitated. Temporal bones are removed and transferred to a cell culture dish with ice-cold Ca^2+/Mg^2+-containing phosphate-buffered saline (PBS; Invitrogen) or cold HBSS medium enriched with glucose. Under microscopic visualization, the cochlear capsules are carefully removed from the temporal bone using forceps and transferred to a new cell culture dish containing ice-cold PBS. The cochleae are then dissected from the cochlear capsule using fine forceps. The stria vascularis is removed from the cochlear tissue and discarded. Dissected cochlear epithelia are transferred to permeable membrane inserts (Millicell organotypic culture plate inserts, Millipore) which are placed into 1 mL of culture media (Dulbecco's modified Eagle's medium (high glucose, Glutamax, 25 mM HEPES) with 10% fetal bovine serum, 1% N2 supplement and 10 units/ml penicillin) in a 6-well plate. Up to 4 cochleae are placed onto each membrane. Explants are placed in a humidified chamber with 5% CO2 at 37° C. for a minimum of 18 hours prior to treatment. Cultures are then pre-treated with test compounds and returned to the incubator for a period of 10 minutes to 48 hours.
(§2) Following the incubation period, cochlear samples are fixed in 4% paraformaldehyde for a minimum of 30 minutes after treatment then permeabilized in 0.5% Triton in PBS (PBST) for 1 hour, followed by overnight incubation at 4° C. in primary antibodies in 10% goat or donkey serum (Sigma). Samples are then rinsed in PBST 2 times for 10 minutes each then incubated in alexa-488 conjugated secondary antibodies for 2 hours at room temperature or overnight at 4° C. in 10% goat or donkey serum (Sigma). Samples are then rinsed 2 times in PBS then incubated in DAPI (1:3000) in PBS for 5 minutes prior to mounting on slides. To evaluate the otoprotective efficacy of the compounds, cochlear samples are immunostained using combination of antibodies generated against markers specific for hair cells (Myosin V1, Myosin VIIA, Parvalbumin, etc.), SGNs (TUJ1, Neurofilament, etc.), f-actin, cell death, cell stress, etc. as well as a nuclear stain to identify cell nuclei.
(§3) Immunostained samples are mounted on glass slides and imaged with an LSM880 laser scanning confocal microscope (Zeiss) or an Operetta high-content imager (Perkin Elmer). The entire explant is imaged for all antibody and nuclear labeling in a 3-dimensional X-Y-Z plane in which the Z-plane consists of a stack imaged at intervals of 0.5-5 μm. The total length of the organ of Corti in each explant is then determined and is divided into 4 equal length regions. Basal, middle and apical hair cells or SGNS are counted at the regions approximately 25%, 50% or 75% of the total cochlear length from the base, respectively. Hair cell survival is determined by counting the number of inner and outer hair cells at these three different regions (base, middle and apex) in each cochlear explant and determining the number of missing/dead hair cells per cochlear region. Hair cell counts are obtained by placing a 200 μm length scale bar parallel to the rows of hair cells at each region and manually counting the total number of outer hair cells (OHCs) and inner hair cells (IHCs) within the 200 μm. Similarly, to evaluate the health and survival of SGNs, the density of SGN fibers or soma is also determined per region by manual counting for same region selected for counting hair cells. Nuclear staining is analyzed to confirm the presence or absence of cell nuclei and to evaluate nuclear health. Image analysis and quantification is performed using Zeiss Zen Blue software, or Perkin Elmer Columbus software.
(§4) Neonatal (P2-P4) Sprague-Dawley rats were used for the experiments described here. Animals were euthanized following anesthesia using isoflurane. Rat cochleae were then dissected in cold HBSS medium enriched with glucose. […]

[2] = Cisplatin binding, % bound
[3] = Pharmacokinetic study after intratympanic administration; format: in vivo, rats
Description: Female rats (Charles River) weighing 200-300 g of approximately 12-16 weeks of age served as subjects (N=4 per group). Prior to any procedures, animals were anesthetized using a combination of xylazine (10 mg/kg), ketamine (50 mg/kg), and acepromazine (1 mg/kg) for up to an hour via the intraperitoneal route. If needed, an intraoperative booster was administered intraperitoneal representing a one-tenth of the original dose.
Intratympanic injection—Each animal was positioned so that the head was tilted at an angle to favor injection towards the round window niche. […] Formulations were delivered using a perfusion pump at the rate of 2 μL/sec. Contact with the round window membrane was maintained for 30 minutes by placing the animal in a recumbent position. During the procedure and until recovery, animals were placed on a temperature controlled (40° C.) heating pad until consciousness was regained at which time they were returned to the vivarium.
Perilymph sampling procedure—The skin behind the ear of anesthetized rats was shaved and disinfected with povidone-iodine. An incision was then made behind the ear, and muscles were carefully retracted from over the bulla. A hole was drilled through the bulla using a dental burr so that the middle ear was exposed and accessed. The cochlea and the round window membrane were visualized under a stereo surgical microscope. The basal turn of bulla was cleaned by using small cotton ball. A unique microhole was hand drilled through the bony shell of the cochlea (cochlear capsule) adjacent to the round window. Perilymph (about 2 μL) was then collected using a microcapillary inserted into the cochlear scala tympani. Perilymph samples were added to a vial containing 18 μL of acetonitrile/water, stored at −80° C. until analysis.
Cochlear epithelium sampling procedure—Under a dissection scope, the bulla was opened, and the cochlea was exposed by removing all surrounding muscles, blood vessels and bone tissues. Holding the bulla, the cochlear wall bony structure was removed working from the base to the apex of the cochlea, exposing the organ of Corti. The exposed cochlear epithelium was gently dabbed with cotton swab to remove excess of liquid from tissue, carefully transferred to labelled tube. Each 2-mL plastic tube that contained acid washed 2.8 mm stainless steel beads was pre-weighed. The tubes were reweighed after adding cochlea epithelium and weights were recorded. All cochlea epithelium samples were placed in dry ice immediately after collection and stored at −80° C. prior to analysis.
Plasma sampling procedure—Blood samples were collected by cardiac puncture into labeled micro-tubes, containing lithium heparin as anticoagulant. Plasma were immediately harvested from the blood by centrifugation and collection for supernatants. All plasma samples were stored at −80° C. prior to analysis.
Samples were extracted by protein precipitation, then vortexed and centrifuged. The supernatant was collected and diluted with two folds of water. A high-performance liquid chromatography system (Agilent 1200 series) with Waters Cortecs C18 Plus column (50*4.6 mm, 2.7 μm) were used. The flow rate was set at 0.700 mL/min. A gradient method with an analytical run time of 5 minutes was used. Mobile phase A consisted of 0.01% ammonium formate, 0.03% formic acid in water. Mobile phase B consisted of 0.01% ammonium formate, 0.03% formic acid in acetonitrile: methanol (70:30, v/v). The gradient began with 30% B, stepped to 70% B at 2.75 minutes and held for 1 minute and then stepped back to 30% B to re-equilibrate the column.
Ionizations and detection of analyte and internal standard were performed on a triple quadruple mass spectrometer, API 5500 Q-Trap equipped with Turbo IonSpray@, from SCIEX (Toronto, Canada). Electro spray ionization (ESI) mass spectra was operated in the positive ion mode. Carbutamide was used as the internal standard (IS). […]

[4] = Cisplatin reaction kinetics by HPLC; conditions: 50 μM cisplatin + 50 μM of compound (API) in PBS, pH 7.4, 37° C.
Description: Reaction kinetics between Cisplatin and the compound of interest (nucleophile) were monitored by high performance liquid chromatography. Isocratic separation was achieved using a Waters Spherisorb C8 column (4×250 mm, 5 μm, 80 Å). The flow rate was set to 1.00 mL/min. The mobile phase consisted of 5 mM Sodium Octanesulfonate+5 mM Tetrabutyl Ammonium Hydrogen Sulfate+20 mM Potassium Dihydrogen Phosphate adjusted to pH 5.9. Detection was performed at a wavelength of 210 nm.
Reactions were conducted at equimolar concentrations in buffered aqueous media and held at 37° C. Rate constants (k) were determined by monitoring the disappearance of Cisplatin as a function of time.

[5] = Rat cisplatin IP PK study, total platinum by ICP-MS; format: in vivo; conditions: for Cmax: read-out: Cmax concentrations in perilymph and cochlear tissues
Description: Total platinum level in samples were analyzed by a qualified inductively coupled plasma mass spectrometric detection (ICP-MS) developed in QPS (Netherlands Lab). Ruthenium were used as internal standard. A flow injection analysis (FIA) method was used to using HPLC pump to introduce samples and internal standard into the systems but without HPLC column. The ICP-quadrupole-MS of Perkin Elmer Sciex Elan 6100 ICP-MS System equipped with a peristaltic pump, nebulizer, spray chamber, and quartz torch were used in platinum analyses.
Sample transport from the autosampler to the nebulizer was performed using a peristaltic pump. The instrument was cooled by using argon gas of 99.999% purity. Data were acquired and processed using the Analyst 1.6. The instrument settings of the ICP-MS had the following operating parameters: ICP radio frequency (RF) power, 1500 W; RF matching, 1.80 V; sampling depth, 8.0 mm; carrier gas, 0.90 L/min; makeup gas, 0.21 L/min; nebulizer pump, 0.10 rps; He gas, 4.5 mL/min; extract 1, 0.0 V; extract 2, −120.0 V; cell entrance, −30 V; cell exit, −30 V; QP bias, −16.0 V; Octp bias, −20.0 V.
The mass to charge ratio is determined by the detector. […] Electronic signals were compared to the standardized curve generated from ultra-high purity platinum samples and solvents. Accounting for dilutions, comparison of the sample signal to the standardized curve will allow for the determination of the original total platinum concentration.
Intraperitoneal injection—The lower right quadrant of the abdomen was shaved and disinfected with alcohol and then povidone iodine. Animals were placed in a supine position and the hind legs were lifted at a 40-degree angle in order to move the abdominal organs towards the diaphragm. A 1″ 23G needle or larger was inserted into the abdominal cavity, directed towards the animal's head, at a 15-20-degree angle and inserted approximately 5 mm. […] After removal of the syringe from the peritoneal cavity, triple antibiotic was placed on the injection site to help prevent infection. During the procedure and until recovery, animals were placed on a temperature controlled (40° C.) heating pad until consciousness was regained at which time they were returned to the vivarium.
Protocol: 3 animals per group at time points. Group A: 30 min, 1 hr, 2 hr, 6 hr, 1 day, 3 day, 7 day, 28 day. Group B: 30 min, 1 hr, 2 hr, 6 hr, 1 day, 3 day. Bioanalysis: Plasma, Perilymph, Cochlear epithelium, CSF. Bioanalytical Method: Total Platinum by ICP-MS.

[6] = test system: spiral ganglion neurons (SGNs); experiment: Cochlear explant model: spiral ganglion neuron protection against cisplatin; format: cell-based, Sprague-Dawley rats; conditions: 1.5 hour pretreatment followed by co-treatment at different concentrations with 10 μM cisplatin
Source text: as §1, §2, §3, §4

[7] = intraperitoneal (IP) administration

Compound	EC100 [1] [µM]	Cisplatin Binding % bound (in 30 min) at 1:10 ratio [2] [%]	protection of hair cells against cisplatin [1]	k [4] [M⁻¹ s⁻¹]	protection of spiral ganglion neurons against cisplatin [6]	other results
CC(=O)c1c[nH]c(=S)n(-c2ccc(C)cc2)c1=O [5-acetyl-3-(p-tolyl)-2-thiouracil]	500	–	–	–	–	potency on HC protection ([1]; ex-vivo cochlear explants, comparison of thiouracils): lower potency
COc1cc(=O)[nH]c(=S)[nH]1 [6-methoxy-2-thiouracil]	50 to 100	–	–	–	–	–
CCCc1cc(=O)[nH]c(=S)[nH]1 [OMY-141, 6-propyl-2-thiouracil]	50 to 100	95	complete protection	10.27	–	In vivo PK in Cochlear Epithelium (24 h after dosing) [3]: ~300 ng/gm CE; plasma exposure after IT injection ([3]; single IT injection): some plasma exposure; perilymph and cochlear epithelium exposure after IT injection ([3]; single IT injection, MCT and/or poloxamer formulation): good perilymph and cochlear epithelium exposure
CSC[C@H]1O[C@@H](n2cnc3c(N)ncnc32)[C@H](O)[C@@H]1O [5-Deoxy-5-methylthioadenosine]	–	–	–	–	–	Ex-vivo Efficacy Conc. for complete protection of hair cells (uM) ([1]; ex vivo cochlear explants, cisplatin): No protection
N.N.[Cl][Pt][Cl] [cisplatin]	–	–	–	–	–	Cmax concentrations in perilymph and cochlear tissues ([5]; dosed at 10 mg/kg IP): 700 to 750 ng/mL; Cmax ([5]; dosed at 10 mg/kg IP): 2300 to 2500 nM; Cmax concentrations in perilymph and cochlear tissues ([5]; dosed at 12 mg/kg IP): 700 to 900 ng/mL; Cmax ([5]; dosed at 12 mg/kg IP): 2300 to 3000 nM; time of peak cisplatin levels in cochlear tissues [5, 7]: 6 h; time of peak cisplatin levels in perilymph [5, 7]: ≤ 30 min
CSCC[C@@H](N)C(=O)O [D-methionine, reference compound]	10000	40	–	0.07	–	In vivo PK in Cochlear Epithelium (24 h after dosing) [3]: ~200 ng/gm CE
Nc1nc2c(ncn2[C@@H]2O[C@H](CO)[C@@H](O)[C@H]2O)c(=S)[nH]1 [6-thioguanosine]	50 to 100	–	complete protection	–	near complete protection	–
Sc1ncnc2nc[nH]c12 [6-mercaptopurine]	50 to 100	60	complete protection	–	near complete protection	–
O=S(=O)(O)CCS [MESNA, reference compound]	–	–	–	0.05	–	–
O=c1cc[nH]c(=S)[nH]1 [Compound 2-thiouracil, 2-thiouracil]	50 to 100	–	–	0.15	–	–
Nc1nc2nc[nH]c2c(=S)[nH]1 [6-thioguanine]	50 to 100	80	complete protection	–	near complete protection	–
Nc1nc2c(ncn2[C@H]2C[C@H](O)[C@@H](CO)O2)c(=S)[nH]1 [6-thio-2′-deoxy guanosine]	100	50	complete protection	–	near complete protection	–
